From patent publication US20230061736A1, “GPR119 AGONISTS” (Kallyope, Inc., priority 2019, published 2023) come the findings set out here.

pEC50: −log10 of the molar value.

In this assay the target is T1, human GPR119 (hGPR119) (Homo sapiens, UniProt Q8TDV5).
T1 construct: expressed in transfected cells
T1 sequence (Q8TDV5 1-335): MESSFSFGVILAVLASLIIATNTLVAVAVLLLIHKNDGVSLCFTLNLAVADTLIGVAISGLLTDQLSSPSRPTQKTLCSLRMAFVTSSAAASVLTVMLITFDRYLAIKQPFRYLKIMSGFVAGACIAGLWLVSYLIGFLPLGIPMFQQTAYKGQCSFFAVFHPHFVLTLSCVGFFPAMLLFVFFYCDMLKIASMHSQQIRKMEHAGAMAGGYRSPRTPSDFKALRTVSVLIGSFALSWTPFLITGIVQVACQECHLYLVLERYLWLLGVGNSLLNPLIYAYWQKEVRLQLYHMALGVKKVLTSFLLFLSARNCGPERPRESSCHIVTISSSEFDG
Kind of assay: cAMP accumulation assay (cAMP Gs dynamic HTRF kit). Type of assay: cell-based. Particulars: CHO-K1 cells stably expressing hGPR119, 4-parameter fit; for Emax: 1 h, % activity normalized to Max/Min controls; for pEC50: cAMP accumulation. In outline:
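Read-out is HTRF 665/620 nm ratio after 1 h detection at ambient temperature, converted to % activity against positive and negative controls, EC50 and Max activity by 4-parameter fit. Compounds were titrated onto ~10,000 thawed hGPR119-CHO-K1 cells/well for 60 min at 37° C/5% CO2.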
(In general: Cyclic AMP is a second messenger, typically raised through Gs and lowered through Gi signalling.)

The term Emax denotes the size of the effect at its maximum, as opposed to the concentration needed. The term pEC50 denotes −log10 of the EC50, conventionally taken in molar units. A high value points to a low EC50. Compound `O=C(CCC1CN(C(=O)Cc2ccc(OCCCC3CCN(c4ncc(Cl)cn4)CC3)cc2F)C1)NCC(O)(CO)CO` [Example 35, 3-[1-[2-[4-[3-[1-(5-chloropyrimidin-2-yl)-4-piperidyl]propoxy]-2-fluoro-phenyl]acetyl]azetidin-3-yl]-N-[2,3-dihydroxy-2-(hydroxymethyl)propyl]propanamide] had an Emax of at least 130% and a pEC50 of at least 7.00. Compound `O=C(NCCCS(=O)(=O)O)C1CN(C(=O)Cc2ccc(OCCCC3CCN(c4ncc(Cl)cn4)CC3)cc2F)C1` [Example 172, 3-[[1-[2-[4-[3-[1-(5-chloropyrimidin-2-yl)-4-piperidyl]propoxy]-2-fluoro-phenyl]acetyl]azetidine-3-carbonyl]amino]propane-1-sulfonic acid] showed an Emax of 100 to 130% and a pEC50 of at least 7.00. The like results for `COCc1cnc(N2CCC(CCCCOc3ccc(CC(=O)N4CC(CNC[C@H](O)[C@@H](O)[C@H](O)[C@H](O)CO)C4)c(F)c3)CC2)nc1` (racemic) [Example 84, 2-[2-fluoro-4-[4-[1-[5-(methoxymethyl)pyrimidin-2-yl]-4-piperidyl]butoxy]phenyl]-1-[3-[[[rac-(2S,3R,4R,5R)-2,3,4,5,6-pentahydroxyhexyl]amino]methyl]azetidin-1-yl]ethanone] were, in that order, 100 to 130% and 6.00 to 7.00. The like results for `COCC1(C(=O)NCC(CO)(CO)CO)CCN(C(=O)Cc2ccc(OCCCC3CCN(c4ncc(Cl)cn4)CC3)cc2F)C1` (stereo not shown) [Example 137, 1-[2-[4-[3-[1-(5-chloropyrimidin-2-yl)-4-piperidyl]propoxy]-2-fluoro-phenyl]acetyl]-N-[3-hydroxy-2,2-bis(hydroxymethyl)propyl]-3-(methoxymethyl)pyrrolidine-3-carboxamide] were, in that order, 100 to 130% and at least 7.00. The compound `COCc1cnc(N2CCC(CCCOc3cc(F)c(CC(=O)N4CC[C@@H](CNCC(O)(CO)CO)C4)c(F)c3)CC2)nc1` [Example 159, 2-[2,6-difluoro-4-[3-[1-[5-(methoxymethyl)pyrimidin-2-yl]-4-piperidyl]propoxy]phenyl]-1-[(3S)-3-[[[2,3-dihydroxy-2-(hydroxymethyl)propyl]amino]methyl]pyrrolidin-1-yl]ethanone] had an Emax of 100 to 130% and a pEC50 of at least 7.00. The compound `CCc1cnc(N2CCC(CCCOc3cc(F)c(CC(=O)N4CC(CNCC(O)(CO)CO)C4)c(F)c3)CC2)nc1` [Example 67, 1-(3-(((2,3-dihydroxy-2-(hydroxymethyl)propyl)amino)methyl)azetidin-1-yl)-2-(4-(3-(1-(5-ethylpyrimidin-2-yl)piperidin-4-yl)propoxy)-2,6-difluorophenyl)ethan-1-one] gave an Emax of 100 to 130% and a pEC50 of at least 7.00. Take `O=C(Cc1ccc(COCC2CC23CCN(c2ncc(Cl)cn2)CC3)cc1F)N1CC(CNC[C@H](O)[C@@H](O)[C@H](O)[C@H](O)CO)C1` (stereo partly drawn) [Example 111, 2-[4-[[6-(5-chloropyrimidin-2-yl)-6-azaspiro[2.5]octan-2-yl]methoxymethyl]-2-fluoro-phenyl]-1-[3-[[[(2S,3R,4R,5R)-2,3,4,5,6-pentahydroxyhexyl]amino]methyl]azetidin-1-yl]ethanone]: the Emax fell in the range of 50 to 100% and the pEC50 was 5.00 to 6.00. `O=C(Cc1ccc(OCCCC2CCN(c3ncc(Cl)cn3)CC2)cc1F)NCCCCCNC[C@H](O)[C@@H](O)[C@H](O)[C@H](O)CO` [Example 3] gave an Emax of at least 130% and a pEC50 of 6.00 to 7.00. The like results for `O=C(Cc1ccc(OCCCC2CCN(c3ncc(Cl)cn3)CC2)cc1F)N1CC[C@@H](CNCC(CO)(CO)CO)C1` [Example 147, 2-[4-[3-[1-(5-chloropyrimidin-2-yl)-4-piperidyl]propoxy]-2-fluoro-phenyl]-1-[(3S)-3-[[[3-hydroxy-2,2-bis(hydroxymethyl)propyl]amino]methyl]pyrrolidin-1-yl]ethanone] were, in that order, 100 to 130% and at least 7.00. `O=C(NCCCCS(=O)(=O)O)C1CN(C(=O)Cc2ccc(OCCCC3CCN(c4ncc(Cl)cn4)CC3)cc2F)C1` [Example 173, 4-[[1-[2-[4-[3-[1-(5-chloropyrimidin-2-yl)-4-piperidyl]propoxy]-2-fluoro-phenyl]acetyl]azetidine-3-carbonyl]amino] butane-1-sulfonic acid] had an Emax of 100 to 130%. `COCc1cnc(N2CCC(CCCOc3cc(F)c(CC(=O)N4CC[C@@H](CNC[C@H](O)[C@@H](O)[C@H](O)[C@H](O)CO)C4)c(F)c3)CC2)nc1` [Example 135, 2-[2,6-difluoro-4-[3-[1-[5-(methoxymethyl)pyrimidin-2-yl]-4-piperidyl]propoxy]phenyl]-1-[(3S)-3-[[[(2S,3R,4R,5R)-2,3,4,5,6-pentahydroxyhexyl]amino]methyl]pyrrolidin-1-yl]ethanone] showed an Emax of 100 to 130% and a pEC50 of at least 7.00. The like results for `O=C(Cc1ccc(OCCCC2CCN(c3ncc(Cl)cn3)CC2)cc1F)NCCCCCC(=O)N1C[C@H](O)[C@@H](O)C1` [Example 25, 2-[4-[3-[1-(5-chloropyrimidin-2-yl)-4-piperidyl]propoxy]-2-fluoro-phenyl]-N-[6-[(3S,4S)-3,4-dihydroxypyrrolidin-1-yl]-6-oxo-hexyl]acetamide] were, in that order, at least 130% and 6.00 to 7.00.

As for `O=C(Cc1ccc(OCCC[C@@H]2[C@H]3CN(c4ncc(Cl)cn4)C[C@@H]23)cc1F)N1CC(CNC[C@H](O)[C@@H](O)[C@H](O)[C@H](O)CO)C1` [Example 113, 2-[4-[3-[(1R,5S)-3-(5-chloropyrimidin-2-yl)-3-azabicyclo[3.1.0]hexan-6-yl]propoxy]-2-fluoro-phenyl]-1-[3-[[[(2S,3R,4R,5R)-2,3,4,5,6-pentahydroxyhexyl]amino]methyl]azetidin-1-yl]ethanone], the Emax was in the range of 100 to 130% and the pEC50 was 6.00 to 7.00. The compound `O=C(CC1(O)CN(C(=O)Cc2ccc(OCCCC3CCN(c4ncc(Cl)cn4)CC3)cc2F)C1)NCC(CO)(CO)CO` [Example 184, 2-[1-[2-[4-[3-[1-(5-chloropyrimidin-2-yl)-4-piperidyl]propoxy]-2-fluoro-phenyl]acetyl]-3-hydroxy-azetidin-3-yl]-N-[3-hydroxy-2,2-bis(hydroxymethyl)propyl]acetamide] showed an Emax of 100 to 130% and a pEC50 of at least 7.00. Take `O=C(Cc1ccc(OCC2CC(C3CCN(c4ncc(Cl)cn4)CC3)C2)cc1F)N1CC(CNC[C@H](O)[C@@H](O)[C@H](O)[C@H](O)CO)C1` (stereo partly drawn) [Example 120, 2-[4-[ [3-[1-(5-chloropyrimidin-2-yl)-4-piperidyl]cyclobutyl]methoxy]-2-fluoro-phenyl]-1-[3-[[[(2S,3R,4R,5R)-2,3,4,5,6-pentahydroxyhexyl]amino]methyl]azetidin-1-yl]ethanone]: the Emax fell in the range of 100 to 130% and the pEC50 is at least 7.00.

`CCOc1cnc(N2CCC(CCCOc3cc(F)c(CC(=O)N4CC[C@@H](CNCC(O)(CO)CO)C4)c(F)c3)CC2)nc1` [Example 156, 2-[4-[3-[1-(5-ethoxypyrimidin-2-yl)-4-piperidyl]propoxy]-2,6-difluoro-phenyl]-1-[(3S)-3-[[[2,3-dihydroxy-2-(hydroxymethyl)propyl]amino]methyl]pyrrolidin-1-yl]ethanone] showed an Emax of at least 130% and a pEC50 of at least 7.00.
